Data reported in article PMC7436000, “The Spectrum of Design Solutions for Improving the Activity-Selectivity Product of Peptide Antibiotics against Multidrug-Resistant Bacteria and Prostate Cancer PC-3 Cells” (Molecules, 2020).
Values after ≈ are worked out from the molar mass of the structure shown. Peptide text beside a SMILES is read from it.

Assays:
E. coli clin. isolate = type: cell-based, Escherichia coli; conditions: clin. isolate
From the text: (§1) The American Type Culture Collection (ATCC, Rockville, MD, USA) strains and Escherichia coli MG1655 were used as standard bacterial strains. Gram-negative ATCC strains consisted of Escherichia coli (ATCC 25922), Pseudomonas aeruginosa (ATCC 27853), Acinetobacter baumannii (ATCC 19606), and Klebsiella pneumoniae (ATCC 13883). The only Gram-positive standard strain chosen for testing was Staphylococcus aureus (ATCC 29213). Clinical isolates with confirmed multidrug-resistance phenotype were obtained from different wards of the University Hospital Center, Split, Croatia. We described their origin, antibiograms, and resistance phenotype previously. In the same paper, we described the procedure for antimicrobial susceptibility testing on planktonic cells, using the microdilution method in 96-well microtiter plates.
(§2) Briefly, cells were grown on agar plates and a single colony was sampled to generate a liquid culture (LC) grown overnight at 37 °C. The culture was sampled, resuspended in fresh medium, and allowed to grow at 37 °C, until reaching the mid-exponential phase. Lysogeny broth (LB) was used in the case of the E. coli MG1655 cells. Mueller Hinton (MH) medium was used for all other bacterial strains. Serial 2-fold dilutions of the peptide (64 μM to 0.0625 μM) were prepared from peptide stock solution in PBS, and added to a final load of 5 × 10^5 CFU/mL in 100 μL total volume of medium per well in a 96-well plate (Brand 781660). Bacterial cultures were incubated with peptides for 18 h to 24 h at 37 °C. The minimum inhibitory concentration (MIC) was defined as the lowest concentration of the peptide, at which no visible bacterial growth was observed. The MIC for each of the tested peptides was determined in at least three individual assays under the same laboratory conditions. […] At the end of the incubation period for MIC or MBC, the determination of the OD600 was analyzed.

[1] = test system: PC-3 prostate cancer cell line; type: cell-based, human; conditions: 24 h
Description: (§3) Prostate cancer cells were donated by the University of Split, School of Medicine. Cells were cultured in RMPI-1640 medium, supplemented with 10% FBS, 1% Penicillin-Streptomycin, and 1% L-Glutamine. Human dermal fibroblasts were purchased from Biopredic (France) and cultured in DMEM medium, supplemented with 10% FBS and 1% Penicillin-Streptomycin. All cell lines were maintained in a humidified incubator with 5% CO2 at 37 °C. Cells were detached using the trypsin-EDTA solution and sub-cultured (7000 cells/well) in a 96-well plate overnight. Peptide stock solutions were prepared in PBS, and cancer cells were treated with 2-fold serial dilutions for 24 h at 37 °C, with 5% CO2. The toxicity of 6 selected peptides was assessed by a standard MTT assay. Treated cells were incubated with MTT working solution (0.5 mg/mL Thiazolyl Blue Tetrazolium Bromide) for 4 h at 37 °C with 5% CO2. Precipitated formazan was dissolved in 200 µL DMSO and absorbance was measured at 595 nm with EnSight Multimode Plate Reader (PerkinElmer, Inc.)

[2] = test system: human primary dermal fibroblasts; type: cell-based; conditions: 24 h
Description: as §3

S. aureus clin. isolate = type: cell-based, Staphylococcus aureus; conditions: clin. isolate
From the text: as §1, §2

P. aerug. clin. isolate = type: cell-based, Pseudomonas aeruginosa
From the text: as §1, §2

A. baum. clin. isolate = type: cell-based, Acinetobacter baumannii
From the text: as §1, §2

human erythrocytes = experiment: Hemolysis of human erythrocytes; type: cell-based; conditions: 0.5% RBC in PBS, 1 h, 37 °C, absorbance 450 nm, triplicate; for HC10: concentration causing 10% hemolysis, 0.2% Triton = 100%; for HC20: concentration causing 20% hemolysis
Description: Fresh blood was obtained from a healthy donor. Blood was stored in a tube containing EDTA at 4 °C and used within 24 h. Before use, 1 mL of blood was centrifuged (400× g, 10 min), and the supernatant was discarded. Moreover, 500 μL cold PBS with EDTA (1 mM) was added, mixed and centrifuged. The supernatant was discarded. Furthermore, 500 μL of cold PBS with EDTA (1 mM) was added, from which a dilution of 1% blood was made. Peptides were prepared in PBS at a 2 × concentration in 100 µL. […] The suspension was incubated at 37 °C for 1 h and centrifuged at 10,000× g for 5 min. […] After centrifugation, the supernatant was added to a 96-well microtiter plate (150–180 μL), and the absorbance was measured at 450 nm, using EnSight Multimode Plate Reader (PerkinElmer, Inc.). Each measurement was done in triplicate. […] We opted to also include the extrapolated HC50 in our results, to permit comparisons with older toxicity results. However, the HC20 measurements were used for ranking the peptides according to their selectivity and overall performance (Figure 1 and Figure 2 and Table 2).

[3] = test system: Escherichia coli (ATCC 25922); type: cell-based; conditions: ATCC 25922
From the text: as §1, §2

[4] = test system: Pseudomonas aeruginosa (ATCC 27853); type: cell-based; conditions: ATCC 27853
From the text: as §1, §2

[5] = test system: Acinetobacter baumannii (ATCC 19606); type: cell-based; conditions: ATCC 19606
From the text: as §1, §2

[6] = test system: Klebsiella pneumoniae (ATCC 13883); type: cell-based; conditions: ATCC 13883
From the text: as §1, §2

[7] = test system: Staphylococcus aureus (ATCC 29213); type: cell-based
From the text: as §1, §2

Escherichia coli MG1655 = type: cell-based; conditions: MG1655
From the text: as §1, §2

K. pneum. clin. isolate = type: cell-based, Klebsiella pneumoniae
From the text: as §1, §2

Row | SMILES | MIC (E. coli clin. isolate) (E. coli clin. isolate) | (TI/ IC50C) vs. MP1 [1] | IC50 [1] | TI (HC20/IC20C) [1] | TI (IC50F/IC50C) [1] | TI/ IC50C [1] | IC50 [2] | MIC (S. aureus clin. isolate) (S. aureus clin. isolate) | MIC (P. aerug. clin. isolate) (P. aerug. clin. isolate) | MIC (A. baum. clin. isolate) (A. baum. clin. isolate) | HC10 (human erythrocytes) | HC20 (human erythrocytes) | MIC (E. coli ATCC 25922) [3] | MIC (P. aerug. ATCC 27853) [4] | MIC (A. baum. ATCC 19606) [5] | MIC (K. pneum. ATCC 13883) [6] | MIC (S. aureus ATCC 29213) [7] | MIC (E. coli MG1655) (Escherichia coli MG1655) | MIC (K. pneum. clin. isolate) (K. pneum. clin. isolate) | also measured
1 | CC[C@H](C)[C@H](NC(=O)CN)C(=O)N[C@@H](CCCCN)C(=O)N[C@@H](CCCCN)C(=O)N[C@@H](Cc1c[nH]c2ccccc12)C(=O)N[C@H](C(=O)N[C@@H](CCCCN)C(=O)NCC(=O)N[C@H](C(=O)N[C@@H](C)C(=O)N[C@@H](CCCCN)C(=O)NCC(=O)N[C@H](C(=O)N[C@@H](C)C(=O)N[C@@H](CCCCN)C(=O)N[C@@H](CC(=O)O)C(=O)N[C@@H](CC(C)C)C(=O)N[C@@H](C)C(=O)N[C@@H](CCCCN)C(=O)N[C@@H](CCCCN)C(=O)N[C@H](C(=O)N[C@@H](CC(C)C)C(N)=O)[C@@H](C)CC)C(C)C)C(C)C)C(C)C [FLEX] (H-GIKKWVKGVAKGVAKDLAKKIL-NH2) | 0.5 µM (≈ 1.17 µg/mL) | 18.5 | 6.25 µM | 25 | 4.8 | 0.77 | 30 µM | 4 µM (≈ 9.4 µg/mL) | 2 to 4 µM | 1 µM (≈ 2.35 µg/mL) | 6 µM | 25 µM | 0.25 µM (≈ 0.587 µg/mL) | 2 µM (≈ 4.7 µg/mL) | 0.5 to 1 µM | 0.5 to 1 µM | 0.25 µM (≈ 0.587 µg/mL) | 16 µM (≈ 37.6 µg/mL) | 2 to 4 µM | 
2 | CC[C@H](C)[C@H](NC(=O)[C@H](CCCNC(=N)N)NC(=O)[C@H](C)NC(=O)[C@H](Cc1ccc(O)cc1)NC(=O)[C@H](CCCNC(=N)N)NC(=O)[C@H](CCCNC(=N)N)NC(=O)[C@H](Cc1c[nH]c2ccccc12)NC(=O)[C@H](Cc1c[nH]cn1)NC(=O)[C@@H](N)Cc1c[nH]cn1)C(=O)NCC(=O)N[C@@H](Cc1ccccc1)C(=O)N[C@@H](CCCNC(=N)N)C(=O)N[C@@H](C)C(=O)N[C@H](C(=O)N[C@@H](CCCNC(=N)N)C(=O)N[C@H](C(=O)N[C@H](C(=O)N[C@H](C(=O)NCC(=O)N[C@@H](CCCCN)C(N)=O)[C@@H](C)CC)C(C)C)[C@@H](C)O)C(C)C [T2] (H-HHWRRYARIGFRAVRTVIGK-NH2) | 8 µM (≈ 19.8 µg/mL) | 8.4 | 10 µM | 1 | 3.5 | 0.35 | 35 µM | 4 µM (≈ 9.92 µg/mL) | 32 µM (≈ 79.3 µg/mL) | 8 µM (≈ 19.8 µg/mL) | 1.4 µM | 3 µM | 0.5 to 1 µM | 4 µM (≈ 9.92 µg/mL) | 1 µM (≈ 2.48 µg/mL) | 4 µM (≈ 9.92 µg/mL) | 1 µM (≈ 2.48 µg/mL) | >32 µM | 8 µM (≈ 19.8 µg/mL) | HC50 (human erythrocytes; concentration causing 50% hemolysis): 28 µM; PEa(20) = SI/MIC(aureus) ([7]; ATCC 29213, 18 h): 3 µM⁻¹
